Literature values as cited in US20210322405A1, “COMPOSITIONS AND METHODS FOR TREATING CANCER” (Washington University, priority 2020, published 2021).

Experiments:
GBM patients = details: clinical trial; Butowski et al., 2016
[1] = system: ALK-inhibitor resistant ALK-driven patient-derived cell lines; details: SHP099 in combination with the ALK inhibitor ceritinib; Dardaei et al., 2018
G6PD = details: dose-dependent manner; Bernstock et al., 2017

## FC(F)(F)c1ccc(CNc2ccc(Cc3c[nH]c4ncc(Cl)cc34)cn2)cn1 [PLX3397]
GBM patients
  clinical benefit for GBM patients: did not show clear benefit

## CC1(N)CCN(c2cnc(-c3cccc(Cl)c3Cl)c(N)n2)CC1 [SHP099]
[1]
  Shp2-activation-mediated resistance to ALK inhibitor: overcome

## CC[C@@]1(O)C(=O)OCc2c1cc1n(c2=O)Cc2cc3c(CN(C)C)c(O)ccc3nc2-1 [topotecan]
G6PD
  activity of G6PD: decreases
